Holding throughout (assay type): cell-based
Assay [1] has as its target Beta-nerve growth factor (Homo sapiens) (UniProt P01138). Description: Induction of neurotrophic factor mRNA expression in human 1321N1 cells at 100 uM by RT-PCR analysis relative to beta-actin mRNA expression.
For assay [2] the target is unchanged. Description: Induction of neurotrophic factor mRNA expression in human 1321N1 cells by RT-PCR analysis.
For assay [3] the target is unchanged. Description: Induction of neurotrophic factor mRNA expression in human 1321N1 cells at 100 uM by RT-PCR analysis.

Active and inactive are the calls of the source. The rule behind the calls is not given here.

Sequence of Beta-nerve growth factor (Homo sapiens) (P01138 122-241 limits assumed): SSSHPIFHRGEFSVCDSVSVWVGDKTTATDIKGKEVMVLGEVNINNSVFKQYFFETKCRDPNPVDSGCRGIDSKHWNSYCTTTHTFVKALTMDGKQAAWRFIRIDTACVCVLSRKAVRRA

In assay [1], `C[C@@H]1C[C@H]2C[C@H]3N[C@H](c4cnc5c(c4)[C@@]46C[C@H](C)C[C@@H](C5)[C@H]4CCCN6)CC[C@H]3[C@]3(C1)NCCC[C@H]23` gave a fold change (FC) of 2.8.
In assay [1], `C[C@@H]1C[C@H]2CC3=C(CC[C@H](c4cnc5c(c4)[C@@]46C[C@H](C)C[C@@H](C5)[C@H]4CCCN6)N3)[C@]3(C1)NCCC[C@H]23` showed a fold change (FC) of 2.4.
The compound `C[C@@H]1C[C@H]2Cc3ncc(-c4ccc5c(n4)C[C@@H]4C[C@@H](C)C[C@]56NCCC[C@H]46)cc3[C@]3(C1)NCCC[C@H]23` registered a fold change (FC) in assay [1] of 3.9. The Activity result in assay [2] is “Dose-dependent effect”.
On to `C[C@@H]1CC2=C3NC(=O)CC[C@]34C[C@@]3(C1)NC[C@H]4C[C@@H]23`, for which the result in assay [3] was inactive.
`C[C@@H]1CC2=C3NC(=O)CC[C@]34C[C@]3(C1)[C@H]2C[C@@H]4CN3C`: the result in assay [3] was inactive.
In assay [1], `C[C@@H]1C[C@H]2Cc3ncc(-c4ccc5c(n4)C(=O)[C@@H]4C[C@@H](C)C[C@]56NCCC[C@H]46)cc3[C@]3(C1)NCCC[C@H]23` displayed a fold change (FC) of 2.3.

For the origin of these results see ChEMBL document CHEMBL1641512, “Lyconadins D and E, and complanadine E, new Lycopodium alkaloids from Lycopodium complanatum” (Bioorg Med Chem, 2011).
